Reference: patent US12570650B2, “6-substituted pyridazine compounds as SMARCA2 and/or SMARCA4 degraders” (Aurigene Oncology Limited, priority 2020, dated 2026)

Experiments:
Format in all cases: cell-based
[1] = system: SK-MEL-5 cells; assay: Anti proliferative activity, Cell Titer Glo assay, SK-MEL-5; settings: Homo sapiens, SK-MEL-5, SK-MEL-5 cells, retreatment Day 4, terminated day 8, CellTiter-Glo
Protocol: (§1) Example-P3: Determination of Anti Proliferative Activity of Compounds by Cell Titer Glo®(Promega) Assay
(§2) Cells were seeded into 96-well plates and the plate was incubated in 37 degrees incubator overnight. The next day, compounds were diluted 3-fold to cover 9-point concentration range in DMSO. Intermediate plate dilution was prepared in media followed with compound treatment in cells. Retreatment of cells with compound dilutions was performed on Day 4 and assay was terminated on day 8 for SK-MEL-5 cells using CellTiter-Glo and the plate was kept on orbital shaker for 20 minutes at RT. Assay was terminated on day 6 for RERF-LC-A1 without a compound retreatment. Luminescence signal was recorded on VICTOR^3 instrument. Percent inhibition of proliferation was calculated at each concentration and plotted against the compound concentration. EC50 value was calculated using GraphPad software.

[2] = molecular target: T1, SMARCA4 (Homo sapiens, UniProt P51532); assay: SMARCA4 degradation in VCaP cells by Western blot; settings: 16 hours
T1 construct: Determination of SMARCA2 and SMARCA4 Degradation in VCaP Cells by Western Blot; endogenous in cells; host or cells: VCaP (ATCC CRL-2876)
Summary of the method: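 VCaP cells treated with compounds diluted from DMSO stocks, final DMSO ≤0.3%; equal protein analysed by SDS-PAGE Western blot. Degradation = 100 − (normalized SMARCA4 band in treated/DMSO sample)×100.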

[3] = molecular target: T2, SMARCA2 (Homo sapiens, UniProt P51531); assay: SMARCA2 degradation in VCaP cells by Western blot; settings: 16 hours
T2 construct: Determination of SMARCA2 and SMARCA4 Degradation in VCaP Cells by Western Blot; endogenous in cells; host or cells: VCaP (ATCC CRL-2876)
Summary of the method: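 VCaP cells were treated with compound for 16 hours, with DMSO at no more than 0.3% final. Lysates were immunoblotted for SMARCA2, using beta-tubulin as loading control. % degradation = 100 − (normalized band intensity treated/normalized band intensity DMSO)×100.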

[4] = system: RERF-LC-A1 cell line; assay: Anti proliferative activity, Cell Titer Glo assay, RERF-LC-A1; settings: 144 h; RERF-LC-A1 cells, terminated day 6 without retreatment, CellTiter-Glo
Protocol: as §1, §2
Herein the group “++” refers to EC50 (RERF-LC-A1) values lower than 100 nM and “+” refers to EC50 (RERF-LC-A1) values greater than 100 nM.

T2 sequence (P51531 whole entry): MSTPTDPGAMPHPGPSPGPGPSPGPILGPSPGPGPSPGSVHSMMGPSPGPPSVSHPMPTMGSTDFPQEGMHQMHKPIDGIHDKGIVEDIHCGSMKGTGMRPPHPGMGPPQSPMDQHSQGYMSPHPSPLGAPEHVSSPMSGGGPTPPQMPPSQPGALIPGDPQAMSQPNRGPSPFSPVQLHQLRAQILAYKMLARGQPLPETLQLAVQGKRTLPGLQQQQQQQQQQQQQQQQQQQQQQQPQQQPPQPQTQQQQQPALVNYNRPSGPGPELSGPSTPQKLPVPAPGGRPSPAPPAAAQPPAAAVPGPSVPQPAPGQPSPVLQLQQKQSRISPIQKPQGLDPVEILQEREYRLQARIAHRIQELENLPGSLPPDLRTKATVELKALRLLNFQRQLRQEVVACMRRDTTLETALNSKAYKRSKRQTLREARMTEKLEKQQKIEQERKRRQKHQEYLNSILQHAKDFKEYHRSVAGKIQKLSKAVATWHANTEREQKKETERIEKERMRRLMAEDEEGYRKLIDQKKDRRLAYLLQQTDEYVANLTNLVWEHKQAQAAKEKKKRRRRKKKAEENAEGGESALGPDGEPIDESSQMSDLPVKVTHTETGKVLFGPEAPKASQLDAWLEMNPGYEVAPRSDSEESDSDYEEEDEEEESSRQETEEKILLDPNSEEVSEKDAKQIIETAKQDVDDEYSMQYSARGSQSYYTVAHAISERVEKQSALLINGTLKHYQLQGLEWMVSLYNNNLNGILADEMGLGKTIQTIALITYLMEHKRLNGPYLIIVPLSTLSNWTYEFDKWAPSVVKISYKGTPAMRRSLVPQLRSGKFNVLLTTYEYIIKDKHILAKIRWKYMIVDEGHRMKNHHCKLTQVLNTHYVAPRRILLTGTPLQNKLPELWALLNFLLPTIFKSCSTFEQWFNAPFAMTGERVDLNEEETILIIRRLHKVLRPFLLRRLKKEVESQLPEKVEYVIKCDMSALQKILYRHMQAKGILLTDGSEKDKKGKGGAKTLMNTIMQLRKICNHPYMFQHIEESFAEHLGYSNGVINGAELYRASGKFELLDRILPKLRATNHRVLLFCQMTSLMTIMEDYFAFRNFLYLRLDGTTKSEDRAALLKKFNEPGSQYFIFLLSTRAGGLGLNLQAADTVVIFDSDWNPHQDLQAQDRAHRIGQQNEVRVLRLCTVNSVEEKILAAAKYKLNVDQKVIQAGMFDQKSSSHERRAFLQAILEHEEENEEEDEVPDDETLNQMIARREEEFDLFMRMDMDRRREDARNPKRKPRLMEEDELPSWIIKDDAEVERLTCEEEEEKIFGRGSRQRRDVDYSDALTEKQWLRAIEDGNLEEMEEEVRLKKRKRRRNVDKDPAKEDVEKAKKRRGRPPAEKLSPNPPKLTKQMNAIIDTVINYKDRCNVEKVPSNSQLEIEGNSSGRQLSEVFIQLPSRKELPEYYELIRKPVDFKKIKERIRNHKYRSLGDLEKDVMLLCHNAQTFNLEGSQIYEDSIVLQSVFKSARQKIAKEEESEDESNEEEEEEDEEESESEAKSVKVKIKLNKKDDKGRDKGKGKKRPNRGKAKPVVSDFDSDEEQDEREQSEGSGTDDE
T1 sequence (P51532 whole entry): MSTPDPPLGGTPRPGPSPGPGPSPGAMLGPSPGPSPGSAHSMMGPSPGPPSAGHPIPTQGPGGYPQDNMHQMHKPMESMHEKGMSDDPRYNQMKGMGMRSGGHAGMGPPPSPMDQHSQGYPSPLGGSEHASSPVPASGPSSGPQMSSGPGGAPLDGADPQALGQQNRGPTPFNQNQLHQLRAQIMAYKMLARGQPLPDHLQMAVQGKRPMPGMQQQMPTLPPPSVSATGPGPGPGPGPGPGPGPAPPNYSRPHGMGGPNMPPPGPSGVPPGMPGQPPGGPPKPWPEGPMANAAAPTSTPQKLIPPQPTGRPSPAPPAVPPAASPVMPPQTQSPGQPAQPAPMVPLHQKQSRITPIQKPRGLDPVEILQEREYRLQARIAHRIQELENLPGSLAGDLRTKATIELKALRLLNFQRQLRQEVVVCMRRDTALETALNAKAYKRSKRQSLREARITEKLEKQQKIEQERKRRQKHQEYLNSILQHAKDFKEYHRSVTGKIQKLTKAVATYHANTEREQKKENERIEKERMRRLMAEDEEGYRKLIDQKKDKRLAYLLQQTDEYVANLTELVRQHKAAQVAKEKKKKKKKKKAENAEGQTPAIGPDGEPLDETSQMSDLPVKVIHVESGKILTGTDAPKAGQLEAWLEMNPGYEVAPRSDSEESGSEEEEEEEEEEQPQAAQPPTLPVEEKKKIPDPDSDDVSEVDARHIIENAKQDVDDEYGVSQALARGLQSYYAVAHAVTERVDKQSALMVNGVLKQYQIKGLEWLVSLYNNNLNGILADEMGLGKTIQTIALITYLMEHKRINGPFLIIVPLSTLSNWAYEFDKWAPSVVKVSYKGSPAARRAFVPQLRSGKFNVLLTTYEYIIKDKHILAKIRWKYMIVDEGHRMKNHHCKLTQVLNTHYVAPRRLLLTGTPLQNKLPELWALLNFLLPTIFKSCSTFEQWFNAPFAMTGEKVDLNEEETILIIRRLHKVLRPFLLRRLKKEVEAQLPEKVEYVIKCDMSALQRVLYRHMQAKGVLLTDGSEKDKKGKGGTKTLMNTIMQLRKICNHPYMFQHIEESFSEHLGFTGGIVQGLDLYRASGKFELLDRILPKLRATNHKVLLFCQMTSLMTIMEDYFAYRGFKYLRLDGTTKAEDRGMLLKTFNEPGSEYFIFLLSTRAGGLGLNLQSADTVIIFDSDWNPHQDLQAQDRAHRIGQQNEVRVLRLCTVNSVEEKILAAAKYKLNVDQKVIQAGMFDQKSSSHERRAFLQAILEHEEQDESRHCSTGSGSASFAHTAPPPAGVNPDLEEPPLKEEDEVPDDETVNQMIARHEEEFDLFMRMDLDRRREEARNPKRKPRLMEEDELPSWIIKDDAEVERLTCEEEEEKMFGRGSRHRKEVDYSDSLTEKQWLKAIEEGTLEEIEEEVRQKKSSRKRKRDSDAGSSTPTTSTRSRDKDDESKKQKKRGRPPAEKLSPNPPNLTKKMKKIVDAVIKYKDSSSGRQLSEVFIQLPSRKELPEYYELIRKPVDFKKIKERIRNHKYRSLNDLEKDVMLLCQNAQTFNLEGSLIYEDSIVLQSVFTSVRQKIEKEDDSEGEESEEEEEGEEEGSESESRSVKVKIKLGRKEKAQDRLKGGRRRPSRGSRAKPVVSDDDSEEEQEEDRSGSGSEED

- EC50 [1]: < 250 nM
- Percent degradation (at 100 nM) SMARCA4 [2]: 0%
- Percent degradation (at 100 nM) SMARCA2 [3]: 94%
SMILES: Cc1ncsc1-c1ccc([C@H](C)NC(=O)[C@@H]2C[C@@H](O)CN2C(=O)[C@@H](NC(=O)CN2CCN(c3ccc(-c4cnnc(-c5ccccc5O)c4)cn3)CC2)C(C)(C)C)cc1 [Compound 5, (2S,4R)-4-hydroxy-1-((S)-2-(2-(4-(5-(6-(2-hydroxyphenyl)pyridazin-4-yl)pyridin-2-yl)piperazin-1-yl)acetamido)-3,3-dimethylbutanoyl)-N-((S)-1-(4-(4-methylthiazol-5-yl)phenyl)ethyl)pyrrolidine-2-carboxamide]
- EC50 [4]: > 100 nM
